The text below walks through data of patent US11028212B2, “Chloroprene graft copolymer latex, method for producing same, bonding agent and adhesive” (SHOWA DENKO K.K., priority 2016, dated 2021).

The data set is classed as physicochemical. The conditions noted are these: polymerization initiator. The source says: The octanol/water partition coefficient is also expressed as LogPow and is an index representing hydrophobicity (solubility in lipid) of a chemical substance. The measurement method of the octanol/water partition coefficient is basically in accordance with OECD Test Guideline (“C (81) 30 appendix 1” determined by OECD Board of Directors) 107 or Japanese Industrial Standards Z7260-107 (2000), “Determination of partition coefficient (1-octanol/water)-Shake flask method”.

As to `CC(C)(C)OO` [t-butyl hydroperoxide], the octanol/water partition coefficient is recorded as −1.3.
